Results as given in PMC6728334 (Scientific Reports, 2019).
Values joined by “and” are separate entries in the source; they are usually repeats but may differ in a detail not shown here. Equal values may be shown once. “Also recorded” adds a separate entry of the source. Read-outs that look alike come from different tables or passages of the source.

Tests used:
[1] = target: T1, Uba1 (Homo sapiens, UniProt P22314); test: Uba1~ubiquitin thioester formation (Uba1, GST-ubiquitin, ATP; silver-stained gels); format: biochemical; details: for Activity in the Uba1~ubiquitin thioester formation assay (in words): up to 500 μM
T1 construct: His; host or cells: E. coli BL21(DE3)
T1 sequence (P22314 1-1058): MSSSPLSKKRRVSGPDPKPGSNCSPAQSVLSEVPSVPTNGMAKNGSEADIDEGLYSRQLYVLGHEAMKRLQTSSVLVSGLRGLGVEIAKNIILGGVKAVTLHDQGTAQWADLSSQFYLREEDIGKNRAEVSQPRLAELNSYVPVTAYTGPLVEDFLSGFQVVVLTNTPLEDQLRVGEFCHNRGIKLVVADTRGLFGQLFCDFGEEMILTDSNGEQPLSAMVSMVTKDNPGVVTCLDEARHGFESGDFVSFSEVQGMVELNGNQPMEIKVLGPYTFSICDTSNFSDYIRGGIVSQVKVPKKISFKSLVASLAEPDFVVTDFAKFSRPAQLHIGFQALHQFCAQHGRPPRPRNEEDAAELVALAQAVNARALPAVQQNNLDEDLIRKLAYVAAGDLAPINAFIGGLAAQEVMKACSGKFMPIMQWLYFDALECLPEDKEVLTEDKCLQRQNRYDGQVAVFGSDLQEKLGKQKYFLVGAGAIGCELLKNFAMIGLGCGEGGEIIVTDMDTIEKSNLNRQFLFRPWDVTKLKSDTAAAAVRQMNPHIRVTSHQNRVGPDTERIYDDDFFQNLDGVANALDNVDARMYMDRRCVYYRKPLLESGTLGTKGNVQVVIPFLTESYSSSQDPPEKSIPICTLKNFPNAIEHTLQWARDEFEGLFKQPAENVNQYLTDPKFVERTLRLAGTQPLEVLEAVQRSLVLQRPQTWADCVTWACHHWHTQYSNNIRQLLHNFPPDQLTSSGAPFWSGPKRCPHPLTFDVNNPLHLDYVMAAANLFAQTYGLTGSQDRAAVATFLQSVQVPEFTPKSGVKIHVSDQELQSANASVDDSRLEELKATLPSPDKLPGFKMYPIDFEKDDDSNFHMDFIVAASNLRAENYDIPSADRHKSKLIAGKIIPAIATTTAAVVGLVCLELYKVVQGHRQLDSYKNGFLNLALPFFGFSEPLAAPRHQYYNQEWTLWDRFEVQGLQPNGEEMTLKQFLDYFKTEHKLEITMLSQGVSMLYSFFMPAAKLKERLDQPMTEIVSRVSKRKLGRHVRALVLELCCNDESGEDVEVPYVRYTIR

[2] = system: PCNA ubiquitination (RFC, Uba1, Rad6, Rad18, PCNA, ubiquitin); test: Reconstituted PCNA ubiquitination cascade, Western blot quantitation; format: biochemical, human; details: for IC50: 15 min preincubation, 2 h with ATP, 2% DMSO, nonlinear regression, read-out: IC50 for inhibition of PCNA ubiquitination; for Activity in the PCNA ubiquitination assay (in words): up to 500 μM
Experimental: The PCNA loading and ubiquitination cascade was reconstituted in 96-well white round-bottom polypropylene plates (Greiner) in a buffer consisting of 40 mM Tris-HCl, pH 7.5, 8 mM MgCl2, and 10% glycerol with 2.5 nM nicked circular pUC19, 50 nM RFC, 50 nM Uba1, 250 nM Rad6–Rad18 dimer, 50 nM FLAG-PCNA, and 250 nM biotin-ubiquitin (final concentrations). Compounds were added to the samples, with preincubation for 15 min at 25 °C before addition of ATP to a final concentration of 2 mM (to initiate the reaction cascade), followed by incubation for 2 h at 25 °C. The reactions were then terminated by addition of EDTA to 20 mM for Alpha assays or Laemmli sample buffer for Western blot analyses. For Alpha assays, reaction mixtures were diluted in buffer containing streptavidin-conjugated donor beads and anti-FLAG antibody-conjugated acceptor beads in opaque white microplates under low-light conditions, as recommended by the Alpha bead manufacturer, PerkinElmer. The plates were read on a Tecan Spark microplate reader at 23 °C. For Western blot analyses, FLAG-PCNA was detected with anti-FLAG antibody, and quantitations from the Western blot images was performed with NIH ImageJ software[74] and then analyzed with GraphPad Prism software.

[3] = system: HEK 293FT cells; test: Cell survival, Alamar Blue (resazurin) assay; format: cell-based, human; details: for IC50 / Activity on cell viability / survival (in words): 24-h treatment; for IC50: 2% DMSO, read-out: IC50 for inhibition of cell survival
Experimental: For cellular experiments, HEK 293FT cells (a fast-growing SV40 large T antigen-transformed strain of HEK 293 cells designed for enhanced transgene expression in transient transfections) were grown in growth medium consisting of Dulbecco’s modified Eagle’s medium (DMEM; Sigma-Aldrich), supplemented with 10% fetal bovine serum (FBS; Gibco) in a humified cell culture incubator at 37 °C with 5% CO2.
(§1) HEK 293FT cells were evaluated for survival following compound treatments by the Alamar Blue (resazurin) assay. Cells were plated onto 96-well plates at 4.8 × 10^4 cells/well in 0.5% FBS-containing DMEM at 37 °C and 5% CO2. After 24 h, compounds were added. After 24-h treatment, resazurin was added to a final concentration of 0.12 mM. Following 4-h incubation, conversion to the resorufin product was measured (with excitation at 542 nm and emission at 590 nm) on a fluorescence plate reader.

[4] = system: Uba1-overexpressing HEK 293 cells; test: Cell survival in Uba1-overexpressing cells vs empty vector-transfected control cells; format: cell-based, human; details: 24-h treatment at IC50 of each compound (Myr 3 mM, DM 650 μM; puromycin 1 and 2 μM)
Experimental: as §1
(§2) HEK 293FT cells (1.5 × 10^6) were plated onto 6-cm plates in 5 ml of DMEM with 10% FBS and allowed to grow for 24 h at 37 °C and 5% CO2. For transfections, 6 μg of plasmid DNA (empty vector containing FLAG-tag sequence only, FLAG-Uba1, or FLAG-ubiquitin) and 10 μl of Lipofectamine 2000 were used for each plate. The DNA and the reagent were diluted separately in 500 μl of Opti-MEM (Gibco), and each was mixed by vortexing. After 5-min incubation, the two tubes were combined and incubated for another 20 min. Prior to adding the transfection solution to the cells, the medium was replaced with 4 ml of Opti-MEM. The transfection solution was then added dropwise. After 3-h incubation, the medium was changed to 0.5% FBS-containing DMEM, and the cells were plated for cell survival experiments, as above.

[5] = system: ubiquitin-overexpressing HEK 293 cells; test: Cell survival in ubiquitin-overexpressing cells vs empty vector-transfected control cells; format: cell-based, human; details: 24-h treatment at IC50 of each compound (Myr 3 mM, DM 650 μM; puromycin 1 and 2 μM)
Experimental: as §1, §2

[6] = target: T1, Uba1; test: Reversibility: Uba1 preincubation, washout by centrifugal filtration, then PCNA ubiquitination; format: biochemical; details: 30 μM compound preincubated with Uba1 for 2 h, then washed out
Experimental: Samples were then transferred to YM-30 Microcon centrifugal concentrators (Merck Millipore), diluted in buffer (40 mM Tris-HCl, pH 7.5, 8 mM MgCl2, and 10% glycerol), then serially centrifuged with additions of buffer to the remaining retentate between each spin, for final dilutions of compounds to <0.05% of original concentrations. The resulting samples were then tested in PCNA ubiquitination reactions.

[7] = Uba1 preincubated with compound 15 min, 2 h reaction, 2% DMSO, read-out: IC50 for inhibition of Uba1~ubiquitin thioester formation

Row | Structure (SMILES) | IC50 [1, 7] | Activity in the Uba1~ubiquitin thioester formation assay (in words) [1] | IC50 [2] | IC50 ([1]; Fig. 6, unit printed as M, read-out: IC50 (Uba1~Ub)) | Activity in the PCNA ubiquitination assay (in words) [2] | Activity in the cell viability experiments at 500 μM ([3]; 24 h) | IC50 ([3]; Homo sapiens, HEK293FT, 24 h) | Effect of Uba1 overexpression on cell survival [4] | Effect of ubiquitin overexpression on cell survival [5] | Activity on cell viability / survival (in words) [3] | IC50 [3] | Uba1~ubiquitin thioester formation, ubiquitin alone preincubated with compound before Uba1 and ATP ([1]; EGCG 10 μM, Myr 50 μM) | IC50 ([1]; Fig. 6, read-out: IC50 (Uba1~Ub)) | Reversibility of inhibition of Uba1 and PCNA ubiquitination after washout [6]
1 | Oc1cc(O)c2c(c1)O[C@H](c1cc(O)c(O)c(O)c1)[C@H](O)C2 [EGC, (–)-Epigallocatechin] | 7.6 µM and 7.58 µM | weak activity | 43.3 µM | – | weak activity | – | 176 µM | not affected; also recorded: Does not protect | not affected; also recorded: Does not protect | measurable cytostatic/cytotoxic activity | 176 µM | – | – | –
2 | O=C(O)c1cc(O)c(O)c(O)c1 [GA, Gallic acid] | > 500 µM | inactive | > 500 µM | – | inactive | – | 241 µM | not mitigated; also recorded: Does not protect | not mitigated; also recorded: Does not protect | little effects | 241 µM | – | – | –
3 | O=c1c(O)c(-c2cc(O)c(O)c(O)c2)oc2cc(O)cc(O)c12 [Myr, Myricetin] | 0.721 µM | active | 1.21 µM | – | active | only very weak activity | > 500 µM | Protects | Protects | very weak activity | – | resulted in inhibition | 0.721 µM | reversible
4 | CCCCCCCCOC(=O)c1cc(O)c(O)c(O)c1 [OG, n-Octyl gallate] | 80.6 µM | active | 10.3 µM | – | active | – | 38.7 µM | Protects | Protects | active | – | – | – | –
5 | COc1ccc(C[C@H](N)C(=O)N[C@H]2[C@@H](O)[C@H](n3cnc4c(N(C)C)ncnc43)O[C@@H]2CO)cc1 [puromycin, reference compound] | – | – | – | – | – | – | – | no differences | no differences | – | – | – | – | –

Continued, in another order:

Row | IC50 [1, 7] | Activity in the Uba1~ubiquitin thioester formation assay (in words) [1] | IC50 [2] | IC50 ([1]; Fig. 6, unit printed as M, read-out: IC50 (Uba1~Ub)) | Structure (SMILES) | Activity in the PCNA ubiquitination assay (in words) [2] | Activity in the cell viability experiments at 500 μM ([3]; 24 h) | IC50 ([3]; Homo sapiens, HEK293FT, 24 h) | Effect of Uba1 overexpression on cell survival [4] | Effect of ubiquitin overexpression on cell survival [5] | Activity on cell viability / survival (in words) [3] | IC50 [3] | Uba1~ubiquitin thioester formation, ubiquitin alone preincubated with compound before Uba1 and ATP ([1]; EGCG 10 μM, Myr 50 μM) | IC50 ([1]; Fig. 6, read-out: IC50 (Uba1~Ub)) | Reversibility of inhibition of Uba1 and PCNA ubiquitination after washout [6]
6 | > 500 µM | inactive | > 500 µM | – | Oc1cc(O)c2c(c1)O[C@H](c1ccc(O)c(O)c1)[C@@H](O)C2 [Cat, (+)-Catechin] | inactive | only very weak activity | > 500 µM | – | – | – | – | – | – | –
7 | 35 µM | active | 1.63 µM | – | CCCCCCCCCCCCOC(=O)c1cc(O)c(O)c(O)c1 [DG, n-Dodecyl gallate] | active | – | 33.5 µM | Does not protect | Protects | active | 33.5 µM | – | – | –
8 | 14.3 µM | – | 66.4 µM | 14.3 µM | O=C1c2c(O)cc(O)cc2O[C@H](c2cc(O)c(O)c(O)c2)[C@H]1O [DM, (+)-Dihydromyricetin] | active | only very weak activity | > 500 µM | Does not protect | Protects | very weak activity | – | – | – | –
9 | > 500 µM | inactive | > 500 µM | – | Oc1cc(O)c2c(c1)O[C@H](c1ccc(O)c(O)c1)[C@H](O)C2 [EC, (–)-Epicatechin] | inactive | only very weak activity | > 500 µM | – | – | – | – | – | – | –
10 | 4.2 µM and 4.22 µM | active | 0.537 µM | – | O=C(O[C@@H]1Cc2c(O)cc(O)cc2O[C@@H]1c1ccc(O)c(O)c1)c1cc(O)c(O)c(O)c1 [ECG, (–)-Epicatechin-3-gallate] | active | – | 262 µM | mitigated; also recorded: Protects | mitigated; also recorded: Protects | active | 262 µM | – | – | –
11 | > 500 µM | inactive | > 500 µM | – | CCCOC(=O)c1cc(O)c(O)c(O)c1 [PG, n-Propyl gallate] | inactive | – | 176 µM | not mitigated; also recorded: Does not protect | not mitigated; also recorded: Does not protect | little effects | 176 µM | – | – | –
